We go through 5 molecules from ChEMBL document CHEMBL1158075, “Brominated cyclodipeptides from the marine sponge Geodia barretti as selective 5-HT ligands” (J Nat Prod, 2006).

For experiment [1], the target named is T1, 5-hydroxytryptamine receptor 2C (Homo sapiens, UniProt P28335).
T1 sequence (P28335 whole entry): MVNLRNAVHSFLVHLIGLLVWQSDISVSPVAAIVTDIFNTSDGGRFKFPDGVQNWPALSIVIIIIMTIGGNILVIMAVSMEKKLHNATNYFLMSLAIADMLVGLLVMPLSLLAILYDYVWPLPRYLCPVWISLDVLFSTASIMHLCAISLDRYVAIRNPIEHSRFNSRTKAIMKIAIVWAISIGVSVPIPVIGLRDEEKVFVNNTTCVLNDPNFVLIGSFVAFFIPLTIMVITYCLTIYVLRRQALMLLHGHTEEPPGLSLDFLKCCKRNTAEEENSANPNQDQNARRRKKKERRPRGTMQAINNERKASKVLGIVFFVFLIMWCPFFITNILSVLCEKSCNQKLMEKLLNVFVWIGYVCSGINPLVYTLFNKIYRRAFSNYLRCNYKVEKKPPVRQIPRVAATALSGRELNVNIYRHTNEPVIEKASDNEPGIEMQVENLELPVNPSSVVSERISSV
Nature of the experiment: Displacement of [N-methyl-3H]LSD from human 5HT2C receptor expressed in HEK293 cells. In kind it is cell-based.

Experiment [2] has as its target T2, 5-hydroxytryptamine receptor 4 (Homo sapiens, UniProt Q13639). As to the kind of experiment: Displacement of [N-methyl-3H]GR-113808 from human 5HT4 receptor expressed in HEK293 cells. The experiment is classed as cell-based.
Experiment [3] addresses 5-hydroxytryptamine receptor 2A (Homo sapiens, UniProt P28223). As to the kind of experiment: biochemical. The experiment is classed as cell-based, HEK293.
The target of experiment [4] is T2, 5-hydroxytryptamine receptor 4. Nature of the experiment: Binding affinity to human 5HT4 receptor expressed in HEK293 cells by saturation binding method. In kind it is cell-based.

T2 sequence (Q13639 whole entry): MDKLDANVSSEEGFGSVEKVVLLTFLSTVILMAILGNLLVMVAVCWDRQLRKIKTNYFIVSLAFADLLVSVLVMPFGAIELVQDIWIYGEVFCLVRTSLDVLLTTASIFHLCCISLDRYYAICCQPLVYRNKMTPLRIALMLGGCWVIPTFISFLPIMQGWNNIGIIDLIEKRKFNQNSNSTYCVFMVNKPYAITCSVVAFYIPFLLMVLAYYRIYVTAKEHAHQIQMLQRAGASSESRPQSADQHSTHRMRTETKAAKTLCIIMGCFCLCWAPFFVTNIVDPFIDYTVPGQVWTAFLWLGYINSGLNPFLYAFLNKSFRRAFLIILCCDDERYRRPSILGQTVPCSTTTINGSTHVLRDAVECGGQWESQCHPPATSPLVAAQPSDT
5-hydroxytryptamine receptor 2A, sequence (P28223 whole entry): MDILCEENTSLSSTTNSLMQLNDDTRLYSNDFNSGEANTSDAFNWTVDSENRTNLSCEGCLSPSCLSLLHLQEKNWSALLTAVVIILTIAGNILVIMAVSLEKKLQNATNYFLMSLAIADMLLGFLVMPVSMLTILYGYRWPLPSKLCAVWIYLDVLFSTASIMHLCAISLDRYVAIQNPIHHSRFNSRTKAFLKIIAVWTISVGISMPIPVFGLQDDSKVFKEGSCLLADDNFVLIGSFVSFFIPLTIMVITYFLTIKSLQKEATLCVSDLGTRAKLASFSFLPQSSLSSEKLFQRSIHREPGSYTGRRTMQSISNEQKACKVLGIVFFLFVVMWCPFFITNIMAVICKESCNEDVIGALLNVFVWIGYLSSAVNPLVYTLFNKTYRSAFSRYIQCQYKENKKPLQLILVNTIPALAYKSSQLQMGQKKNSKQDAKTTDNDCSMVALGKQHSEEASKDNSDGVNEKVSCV

The molecule `NC(N)=NCCC[C@@H]1NC(=O)[C@H](Cc2c[nH]c3cc(Br)ccc23)NC1=O` gave an inhibition constant Ki in experiment [1] of 4.63 µM.
Take `CC[C@@H](CO)NC(=O)[C@@H]1C=C2c3cccc4c3c(cn4C)C[C@H]2N(C)C1` [METHYSERGIDE]: in experiment [1], the inhibition constant Ki is 0.0025 µM.
`CCCCCNC(=N)N/N=C/c1c[nH]c2ccc(OC)cc12` [TEGASEROD] came in with a Ki in experiment [2] of 0.031 µM.
Turning to `N=C(N)NCCC[C@@H]1NC(=O)/C(=C/c2c[nH]c3cc(Br)ccc23)NC1=O` [BARETTIN], the Ki came out at 1.91 µM in experiment [2], 1.93 µM in experiment [3] and 0.34 µM in experiment [1].
In experiment [4], `[3H]C([3H])([3H])n1cc(C(=O)OCC2CCN(CCNS(C)(=O)=O)CC2)c2ccccc21` returned a Kd of 0.0158 µM.
